These results are taken from ChEMBL document CHEMBL1150785 (Antimicrob Agents Chemother, 2007).

This experiment deals with Mycobacterium tuberculosis. Briefly: Effect on mutation frequency of Mycobacterium tuberculosis H37Ra assessed as mutation prevention concentration. Type of experiment: functional.

For `NNC(=O)c1ccncc1` [ISONIAZID], the Activity came out at 50 mg/L.
